Assay [1] addresses T1, HCV NS3/4A protease complex (Hepatitis C virus genotype 1a, UniProt P27958, C1454S/C1711G).
T1 construct: DNA encoding the recombinant HCV NS3/4A protease complex (amino acids 1027 to 1711) for these strains; inferred from pET21b vector and Ni-NTA purification; made in house; host or cells: Escherichia coli BL21 (DE3)
The assay is described as follows: FRET peptide assay to monitor HCV NS3/4A proteolytic activity. It counts as biochemical. From the text:
HCV NS3 protease complexes, derived from the BMS strain, H77 strain or J4L6S strain, were generated, as described below. These purified recombinant proteins were generated for use in a homogeneous assay (see below) to provide an indication of how effective compounds of the present disclosure would be in inhibiting HCV NS3 proteolytic activity.
Serum from an HCV-infected patient was obtained from Dr. T. Wright, San Francisco Hospital. An engineered full-length cDNA (compliment deoxyribonucleic acid) template of the HCV genome (BMS strain) was constructed from DNA fragments obtained by reverse transcription-PCR (RT-PCR) of serum RNA (ribonucleic acid) and using primers selected on the basis of homology between other genotype 1a strains. From the determination of the entire genome sequence, a genotype 1a was assigned to the HCV isolate according to the classification of Simmonds et al. (See P Simmonds, K A Rose, S Graham, S W Chan, F McOmish, B C Dow, E A Follett, P L Yap and H Marsden, J. Clin. Microbial., 31(6), 1493-1503 (1993)). […] The infectious clones, H77 (1a genotype) and J4L6S (1b genotype) were obtained from R. Purcell (NIH) and the sequences are published in Genbank (AAB67036, see Yanagi, M., Purcell, R. H., Emerson, S. U. and Bukh, J. Proc. Natl. Acad. Sci. USA. 94(16), 8738-8743 (1997); AF054247, see Yanagi, M., St Claire, M., Shapiro, M., Emerson, S. U., Purcell, R. H. and Bukh, J., Virology 244 (1), 161-172. (1998)).
The H77 and J4L6S strains were used for production of recombinant NS3/4A protease complexes. DNA encoding the recombinant HCV NS3/4A protease complex (amino acids 1027 to 1711) for these strains was manipulated as described by P. Gallinari et al. (see Gallinari P, Paolini C, Brennan D, Nardi C, Steinkuhler C, De Francesco R. Biochemistry. 38(17):5620-32, (1999)). Briefly, a three-lysine solubilizing tail was added at the 3′-end of the NS4A coding region. The cysteine in the P1 position of the NS4A-NS4B cleavage site (amino acid 1711) was changed to a glycine to avoid the proteolytic cleavage of the lysine tag. […]

The subject of assay [2] is HCV 1b replicon (Renilla luciferase reporter) in HUH-7 cells. The experiment in a line: HCV replicon luciferase reporter assay. The following applies: Huh-7, 96 h, 4 days, read-out: Potency in the 1b luciferase assay. It counts as cell-based, Hepatitis C virus (strain 1b). An excerpt: As a secondary assay, EC50 determinations from the replicon FRET assay were confirmed in a replicon luciferase reporter assay. Utilization of a replicon luciferase reporter assay was first described by Krieger et al (Krieger N, Lohmann V, and Bartenschlager R, J. Virol. 75(10):4614-4624 (2001)). The replicon construct described for our FRET assay was modified by inserting cDNA encoding a humanized form of the Renilla luciferase gene and a linker sequence fused directly to the 3′-end of the luciferase gene. This insert was introduced into the replicon construct using an Asc1 restriction site located in core, directly upstream of the neomycin marker gene. The adaptive mutation at position 1179 (serine to isoleucine) was also introduced (Blight K J, Kolykhalov, A A, Rice, C M, Science 290(5498):1972-1974). A stable cell line constitutively expressing this HCV replicon construct was generated as described above. The luciferase reporter assay was set up as described for the HCV replicon FRET assay with the following modifications. Following 4 days in a 37° C./5% CO2 incubator, cells were analyzed for Renilla Luciferase activity using the Promega Dual-Glo Luciferase Assay System. Media (100 μl) was removed from each well containing cells. To the remaining 50 μl of media, 50 μl of Dual-Glo Luciferase Reagent was added, and plates rocked for […] to 2 h at room temperature. Dual-Glo Stop & Glo Reagent (50 μl) was then added to each well, and plates were rocked again for an additional 10 min to 2 h at room temperature. Plates were read on a Packard TopCount NXT using a luminescence program.
The percentage inhibition was calculated using the formula below: […]
The values were graphed and analyzed using XLfit to obtain the EC50 value.

Assay [3] concerns HCV replicon in HUH-7 cells. The assay is described as follows: HCV replicon FRET assay. In kind it is cell-based, Hepatitis C virus (strain 1b). The following applies: Hepatitis C virus, Huh-7, 96 h. From the text:
An HCV replicon whole cell system was established as described by Lohmann V, Korner F, Koch J, Herian U, Theilmann L, Bartenschlager R., Science 285(5424):110-3 (1999). This system enabled us to evaluate the effects of our HCV Protease compounds on HCV RNA replication. Briefly, using the HCV strain 1b sequence described in the Lohmann paper (Assession number:AJ238799), an HCV cDNA was synthesized by Operon Technologies, Inc. (Alameda, Calif.), and the full-length replicon was then assembled in plasmid pGem9zf(+) (Promega, Madison, Wis.) using standard molecular biology techniques. […]
The HCV replicon FRET assay was developed to monitor the inhibitory effects of compounds described in the disclosure on HCV viral replication. […] After 4 days, cells were first assessed for cytotoxicity using alamar Blue (Trek Diagnotstic Systems) for a CC50 reading. The toxicity of compound (CC50) was determined by adding 1/10th volume of alamar Blue to the media incubating the cells. After 4 h, the fluorescence signal from each well was read, with an excitation wavelength at 530 nm and an emission wavelength of 580 nm, using the Cytofluor Series 4000 (Perspective Biosystems). […]

From patent publication US20100272674A1, “Hepatitis C Virus Inhibitors” (Bristol-Myers Squibb Company, priority 2008, published 2010) come the findings set out here.

T1 sequence (P27958 1027-1711 C1454S/C1711G, one chain of several): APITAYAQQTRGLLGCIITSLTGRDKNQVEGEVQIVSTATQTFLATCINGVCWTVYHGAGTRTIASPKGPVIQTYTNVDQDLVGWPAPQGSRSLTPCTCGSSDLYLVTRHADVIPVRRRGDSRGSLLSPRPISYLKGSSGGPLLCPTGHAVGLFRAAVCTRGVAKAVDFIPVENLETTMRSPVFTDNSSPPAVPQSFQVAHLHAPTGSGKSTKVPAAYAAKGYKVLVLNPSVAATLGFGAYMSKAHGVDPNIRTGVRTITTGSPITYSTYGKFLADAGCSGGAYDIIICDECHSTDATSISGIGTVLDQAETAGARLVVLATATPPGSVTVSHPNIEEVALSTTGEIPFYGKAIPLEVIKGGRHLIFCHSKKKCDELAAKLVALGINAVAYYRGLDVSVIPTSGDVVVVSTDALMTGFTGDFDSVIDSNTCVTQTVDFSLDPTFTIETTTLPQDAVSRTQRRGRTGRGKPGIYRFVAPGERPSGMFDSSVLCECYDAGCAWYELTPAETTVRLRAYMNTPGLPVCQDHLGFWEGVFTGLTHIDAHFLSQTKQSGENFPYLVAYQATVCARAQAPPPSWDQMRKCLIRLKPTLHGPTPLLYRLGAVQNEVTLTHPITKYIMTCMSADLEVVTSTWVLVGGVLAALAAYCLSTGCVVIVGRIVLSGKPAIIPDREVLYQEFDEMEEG

`COc1cc2ccc3cc2cc1C=CCC(C)(C)COC(=O)N[C@H]1CCCCC/C=C\[C@@H]2C[C@@]2(C(=O)NS(=O)(=O)C2CC2)NC(=O)[C@@H]2C[C@]3(OC)CN2C1=O` (mixture of isomers) [Compound 1]: 1 nM corresponded to half-maximal inhibition in assay [1] (IC50). Further, the EC50 in assay [2] worked out at 1.6 nM; in assay [3], 9.8 nM.
`COc1cc2ccc3cc2cc1CCCCCCOC(=O)N[C@H]1CCCCCCC[C@@H]2C[C@@]2(C(=O)NS(=O)(=O)C2CC2)NC(=O)[C@@H]2C[C@]3(OC)CN2C1=O` [Compound 2]: in assay [1], the IC50 was determined as 5 nM. Besides, the EC50 in assay [2] worked out at 3.9 nM.
Regarding `COc1cc2ccc3cc2cc1CCCC(C)(C)CCOC(=O)N[C@H]1CCCCCCC[C@@H]2C[C@@]2(C(=O)NS(=O)(=O)C2CC2)NC(=O)[C@@H]2C[C@]3(OC)CN2C1=O` [Compound 3], the IC50 in assay [1] came to 1 nM. Moreover, the EC50 in assay [2] amounted to 2.7 nM.
